One data set concerns the target T1, Kv1.3 (Homo sapiens, UniProt P22001).
T1 construct: expressed in transfected cells
The data set can be described thus: Patch clamp assay (QPatch), Kv1.3. The class given is cell-based. The following applies: CHO cells stably expressing human Kv1.3, read-out: Potency IC50, Kv1.3. A general note: The patch-clamp technique gives a direct electrical read-out from membranes.

In a further data set the target is T2, Kv1.6 (Homo sapiens, UniProt P17658).
T2 construct: expressed in transfected cells
T2 sequence (P17658 whole entry): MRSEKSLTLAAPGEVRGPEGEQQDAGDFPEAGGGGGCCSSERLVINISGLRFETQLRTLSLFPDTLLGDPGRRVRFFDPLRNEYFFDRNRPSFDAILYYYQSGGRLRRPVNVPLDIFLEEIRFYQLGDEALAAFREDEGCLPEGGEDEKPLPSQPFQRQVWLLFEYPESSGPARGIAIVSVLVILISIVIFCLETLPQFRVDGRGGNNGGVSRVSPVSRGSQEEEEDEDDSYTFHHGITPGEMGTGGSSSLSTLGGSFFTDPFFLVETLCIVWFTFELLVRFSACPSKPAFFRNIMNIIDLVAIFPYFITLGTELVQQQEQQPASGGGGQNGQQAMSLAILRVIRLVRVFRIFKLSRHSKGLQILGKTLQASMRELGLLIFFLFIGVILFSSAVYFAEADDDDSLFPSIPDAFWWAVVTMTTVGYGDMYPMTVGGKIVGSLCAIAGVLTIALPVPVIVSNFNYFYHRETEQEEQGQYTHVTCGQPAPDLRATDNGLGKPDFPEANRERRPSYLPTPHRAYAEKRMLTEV
As to the kind of experiment: Patch clamp assay (QPatch), Kv1.6. The following applies: for IC50: QPatch, CHO cells stably expressing human Kv1.6, read-out: Potency IC50, Kv1.6; for Selectivity Kv1.6/Kv1.3: ratio of IC50 Kv1.6/Kv1.3. It is filed as cell-based.

A further data set concerns the target T3, Kv1.2 (Homo sapiens, UniProt P16389).
T3 construct: expressed in transfected cells
The data set can be described thus: Patch clamp assay (QPatch), Kv1.2. To be noted: for IC50: QPatch, CHO cells stably expressing human Kv1.2, read-out: Potency IC50, Kv1.2; for Selectivity Kv1.2/Kv1.3: ratio of IC50 Kv1.2/Kv1.3. The class given is cell-based.

Another data set concerns the target T4, Kv1.1 (Homo sapiens, UniProt Q09470).
T4 construct: expressed in transfected cells
As to the kind of experiment: Patch clamp assay (QPatch), Kv1.1. The class given is cell-based. The following applies: for IC50: QPatch, CHO cells stably expressing human Kv1.1, read-out: Potency IC50, Kv1.1; for Selectivity Kv1.1/Kv1.3: ratio of IC50 Kv1.1/Kv1.3.

A short description of data set [1]: Example 6: Pharmacokinetic characterisation after s.c. administration. It is filed as in vivo, rat (Sprague Dawley or Wistar). To be noted: rat, 70 nmol/kg; for AUCINF / Cmax: plasma; for T1/2: plasma terminal elimination half-life. How it is done: Sprague Dawley or Wistar rats (males with a body weight of approximately 250-350 g) were given a single subcutaneous (s.c.) injection of each peptide to be tested.
Following s.c. administration of the selected peptides (dose 70 nmol/kg, dosing volume either 2 or 5 mL/kg), blood samples were drawn at 15 min, 30 min, 45 min, 60 min, 90 min, 2 h, 3 h, 4 h post-dose. At each sampling time point, samples from the rats were drawn by sublingual bleeding or by tail cut. After last sampling the rats were sacrificed by O2/CO2 anaesthesia. The dosing vehicle was 10 mM phosphate, 0.8% NaCl, 0.05% Polysorbate 20 (pH 6.0).
Plasma samples were analyzed after solid phase extraction (SPE) by liquid chromatography mass spectrometry (LC-MS/MS). Mean plasma concentrations were used for calculation of the pharmacokinetic parameters using the non-compartmental approach in Phoenix WinNonlin 6.4 or a later version. […]. AUCinf is the area under the plasma concentration−time curve extrapolated to infinity (AUCinf=AUClast+Clast/λz, where Clast is the last observed plasma concentration). Cmax is the maximum observed concentration, occurring at Tmax.

The test system of data set [2] is T-cell activation in rat whole blood. The data set can be described thus: Example 4: IL-17A release in thapsigargin stimulated rat whole blood. It is filed as cell-based, rat (Lewis or Sprague-Dawley). The following applies: 24 Hr, at least 2 replicates, unit inferred, read-out: IC50 (inhibition of IL-17A release). In short, it runs like this: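 Heparinised whole blood from naïve Lewis or Sprague-Dawley rats preincubated ≥5 min at RT with peptide, then stimulated with thapsigargin (40 μM stock added as one quarter of well volume) for 24 h at 37 °C. Supernatant IL-17A measured by ELISA; IC50 from curves normalised to stimulated and unstimulated controls, ≥2 replicates.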

Usually IC50 stands for the concentration at which inhibition is half-maximal. For orientation: Cmax means the peak of the concentration-time curve.

T1 sequence (P22001 whole entry): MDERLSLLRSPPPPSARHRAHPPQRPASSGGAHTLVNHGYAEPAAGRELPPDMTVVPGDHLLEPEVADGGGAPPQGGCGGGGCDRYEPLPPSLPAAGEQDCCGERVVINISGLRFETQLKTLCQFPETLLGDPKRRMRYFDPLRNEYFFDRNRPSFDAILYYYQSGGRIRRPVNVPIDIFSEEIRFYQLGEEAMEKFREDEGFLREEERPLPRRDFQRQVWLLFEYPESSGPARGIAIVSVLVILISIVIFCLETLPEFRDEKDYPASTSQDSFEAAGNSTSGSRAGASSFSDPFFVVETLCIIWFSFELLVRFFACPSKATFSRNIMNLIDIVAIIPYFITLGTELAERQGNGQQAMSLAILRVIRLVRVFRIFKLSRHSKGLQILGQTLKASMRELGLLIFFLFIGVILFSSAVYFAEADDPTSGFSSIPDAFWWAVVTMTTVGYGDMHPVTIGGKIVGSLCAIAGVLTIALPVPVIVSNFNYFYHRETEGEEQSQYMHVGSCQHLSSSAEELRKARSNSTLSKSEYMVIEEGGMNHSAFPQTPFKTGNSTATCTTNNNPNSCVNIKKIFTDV
T4 sequence (Q09470 whole entry): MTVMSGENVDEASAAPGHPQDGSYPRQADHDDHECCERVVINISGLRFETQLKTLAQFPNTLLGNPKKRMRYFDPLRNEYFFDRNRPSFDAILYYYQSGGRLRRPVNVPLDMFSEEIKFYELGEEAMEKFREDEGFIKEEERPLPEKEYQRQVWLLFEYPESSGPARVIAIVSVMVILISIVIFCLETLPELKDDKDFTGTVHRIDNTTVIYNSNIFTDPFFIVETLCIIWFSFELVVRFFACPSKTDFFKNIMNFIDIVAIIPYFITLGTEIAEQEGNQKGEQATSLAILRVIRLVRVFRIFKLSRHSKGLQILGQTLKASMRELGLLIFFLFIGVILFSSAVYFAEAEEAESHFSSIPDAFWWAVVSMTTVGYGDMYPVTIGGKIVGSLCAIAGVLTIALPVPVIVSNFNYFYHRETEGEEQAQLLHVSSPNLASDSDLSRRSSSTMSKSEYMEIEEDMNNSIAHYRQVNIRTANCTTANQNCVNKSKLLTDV
T3 sequence (P16389 whole entry): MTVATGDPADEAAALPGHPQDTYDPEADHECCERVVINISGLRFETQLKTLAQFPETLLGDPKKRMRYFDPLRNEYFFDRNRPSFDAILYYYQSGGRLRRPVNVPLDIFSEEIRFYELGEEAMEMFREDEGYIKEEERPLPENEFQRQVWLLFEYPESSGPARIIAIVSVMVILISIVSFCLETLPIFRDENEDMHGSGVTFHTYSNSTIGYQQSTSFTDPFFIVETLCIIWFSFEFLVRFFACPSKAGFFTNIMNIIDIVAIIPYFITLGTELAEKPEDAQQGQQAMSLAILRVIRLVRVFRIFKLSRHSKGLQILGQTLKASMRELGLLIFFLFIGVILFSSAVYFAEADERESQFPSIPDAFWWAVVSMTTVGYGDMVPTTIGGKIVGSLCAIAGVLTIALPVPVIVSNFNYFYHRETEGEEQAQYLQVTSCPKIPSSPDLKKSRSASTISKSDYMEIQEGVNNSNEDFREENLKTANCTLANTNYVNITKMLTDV
Procedure for Kv1.2: (§1) Selectivity of Kv1.3 inhibitor peptides for Kv1.3 over other potassium ion channels (Kv1.1, Kv1.2 and Kv1.6) was determined using patch clamp assay.
(§2) Chinese Hamster Ovary (CHO) cell lines stably expressing exogenous human α-subunits of each potassium ion channel were grown and passaged under standard culture conditions.
(§3) The automated, chip-based planar patch clamp device QPatch® was used to quantitate the ionic currents. All recordings were made in the conventional whole-cell configuration after establishment of gigaohm seals. […] During experiments 0.1% (v/v) BSA was included as a vehicle in all external recording solutions. Currents were elicited from a holding potential of −80 mV using a voltage protocol, which shifted the voltage to 30 mV for 500 ms every 15 s.
(§4) Concentration-response relationships were established by cumulatively applying seven escalating concentrations of test sample to an individual cell with a recording period of 2 min per compound application.
(§5) The efficacy was determined as the mean charge for the last three sweeps at the end of each concentration application period from the cursor positions. The percent inhibition for each test dose application period was calculated as the reduction in mean cursor value (charge) relative to the cursor value measured at the end of the vehicle period and used to calculate the IC50 from the concentration response curve.
Procedure for Kv1.3: as §1, §2, §3, §4, §5
Procedure for Kv1.6: as §1, §2, §3, §4, §5

In the case of “H-MDMRC(1)SASVEC(2)KQKC(3)LKAIGSIFGKC(1)MNKKC(2)KC(3)YPR-OH [Peptide 6]”, the concentration for half-maximal inhibition (IC50) at Kv1.3 came to 0.38 nM. At Kv1.6, the IC50 was more than 3000 nM and the “Selectivity Kv1.6/Kv1.3” value is reported as more than 7900. Also, on Kv1.2, the IC50 stood at 285 nM and the “Selectivity Kv1.2/Kv1.3” value was 747. Further, on Kv1.1, the half-maximal inhibitory concentration (IC50) is more than 3000 nM and the “Selectivity Kv1.1/Kv1.3” value was more than 7900. For the same substance, in data set [1], the AUCINF amounted to 0.0724 µM·h, the highest level (Cmax) was 48.4 nM and the T1/2 was found to be 55.8 min.

Regarding “H-NMDMRC(1)SASVEC(2)KQKC(3)LYAIGSIFGKC(1)MNKKC(2)KC(3)YPR-NH2 [Peptide 54]”, the IC50 at Kv1.3 worked out at 0.29 nM. At Kv1.6, the concentration for half-maximal inhibition (IC50) was more than 3000 nM and the “Selectivity Kv1.6/Kv1.3” value is reported as more than 10300. At Kv1.2, the IC50 was 149 nM and the “Selectivity Kv1.2/Kv1.3” value is reported as 514. For the same substance, at Kv1.1, the IC50 was more than 3000 nM and the “Selectivity Kv1.1/Kv1.3” value was more than 10300. For the same substance, in data set [1], the AUCINF came to 0.0311 µM·h, the Cmax stood at 50 nM and the T1/2 came to 52.2 min.

As to “H-NIDMRC(1)SASVEC(2)KQKC(3)LKAIGSIFGKC(1)MNKKC(2)KC(3)YPR-OH [Peptide 9]”, the IC50 on Kv1.3 was found to be 0.44 nM. Besides, on Kv1.6, the IC50 is more than 3000 nM and the “Selectivity Kv1.6/Kv1.3” value is recorded as more than 6800. On Kv1.2, the IC50 turned out to be 376 nM and the “Selectivity Kv1.2/Kv1.3” value is reported as 857. In addition, at Kv1.1, the IC50 was more than 3000 nM and the “Selectivity Kv1.1/Kv1.3” value is more than 6800. In data set [1], the AUCINF worked out at 0.0983 µM·h, the highest level (Cmax) was 76.9 nM and the T1/2 was 37.2 min.

Regarding “H-N[Nle]S[Nle]RC(1)SASVEC(2)KQKC(3)LKAIGSIFGKC(1)[Nle]NKKC(2)KC(3)YPR-NH2 [Peptide 47]”, the IC50 is 0.32 nM at Kv1.3; 1400 nM on Kv1.6; 302 nM at Kv1.2; 0.79 nM in data set [2]; more than 3000 nM at Kv1.1. Besides, the “Selectivity Kv1.6/Kv1.3” value at Kv1.6 is 4359. In addition, on Kv1.2, the “Selectivity Kv1.2/Kv1.3” value is listed as 943. Further, the “Selectivity Kv1.1/Kv1.3” value on Kv1.1 is on record as more than 9400.

“Ac-C(1)SASVEC(2)KQKC(3)LKAIGSIFGKC(1)[Nle]NKKC(2)KC(3)YPR-NH2 [Peptide 109]”: the IC50 is 0.24 nM on Kv1.3; more than 3000 nM on Kv1.6; 384 nM at Kv1.2; 0.88 nM in data set [2]; more than 3000 nM at Kv1.1. Further, the “Selectivity Kv1.6/Kv1.3” value at Kv1.6 is on record as more than 12400. The “Selectivity Kv1.2/Kv1.3” value at Kv1.2 was found to be 1591. Further, the “Selectivity Kv1.1/Kv1.3” value at Kv1.1 is given as more than 12400.

In the case of “H-NMDMRC(1)SASVEC(2)KEKC(3)LKAIGSIFGKC(1)MNKKC(2)KC(3)YPR-NH2 [Peptide 32]”, the 50% inhibitory concentration (IC50) on Kv1.3 was 0.28 nM; at Kv1.6 it was more than 3000 nM; on Kv1.2, 179 nM; in data set [2], 0.86 nM; on Kv1.1 it was more than 3000 nM. The “Selectivity Kv1.6/Kv1.3” value on Kv1.6 is given as more than 10800. For the same substance, the “Selectivity Kv1.2/Kv1.3” value at Kv1.2 is 648. In addition, the “Selectivity Kv1.1/Kv1.3” value on Kv1.1 is reported as more than 10800.

As to “H-NMDMRC(1)SASVEC(2)KQKC(3)LKAIESIFGKC(1)MNKKC(2)KC(3)YPR-NH2 [Peptide 23]”, the IC50 at Kv1.3 was 0.29 nM; at Kv1.6, more than 3000 nM; at Kv1.2, 181 nM; in data set [2], 2.8 nM; on Kv1.1, more than 3000 nM. Moreover, the “Selectivity Kv1.6/Kv1.3” value on Kv1.6 is reported as more than 10200. Further, the “Selectivity Kv1.2/Kv1.3” value on Kv1.2 is given as 615. On Kv1.1, the “Selectivity Kv1.1/Kv1.3” value is listed as more than 10200.

“H-N[Nle]D[Nle]RC(1)SASVEC(2)KQKC(3)KAIGSIFGKC(1)[Nle]NKKC(2)KC(3)YPR-NH2 [Peptide 50]”: the 50% inhibitory concentration (IC50) at Kv1.3 was 1.34 nM; on Kv1.6 it was 946 nM; at Kv1.2, 164 nM; in data set [2], 1 nM; at Kv1.1, more than 3000 nM. At Kv1.6, the “Selectivity Kv1.6/Kv1.3” value was found to be 707. For the same substance, the “Selectivity Kv1.2/Kv1.3” value on Kv1.2 is reported as 123. The “Selectivity Kv1.1/Kv1.3” value on Kv1.1 is more than 2200.

(Values after US20260325605A1, “INHIBITORS” (Zealand Pharma A/S, priority 2022, published 2026).)
